From patent publication US20090209517A1, “Use of 5H-dibenz/b,f/azepine-5-carboxamide derivatives in the treatment of neuropathic pain and neurological disorders” (priority 2006, published 2009)
Like-named read-outs stand apart in the source and are kept apart here.

How the values were obtained:
Mice (NMRI) [1] = conditions: mouse, in vivo
Mice (NMRI) [2] = assay: Formalin paw test (licking time); assay type: in vivo; conditions: for Formalin paw test licking time (s) at 100 mg/kg: 100 mg/kg p.o., 60 min before test, vehicle-treated mice 81.0±13.8 s; for Effect on licking in the formalin test at 300 mg/kg: 300 mg/kg p.o.; for ED50: Mus musculus, po, doses 10-300 mg/kg, FIG. 1, read-out: ED50 for reduction of licking time in the formalin paw test
Description: The method, which detects analgesic/anti-inflammatory activity, follows that described by Wheeler-Aceto et al (see WHEELER-ACETO, H. & A., C. (1991), “Standardization of the rat paw formalin test for the evaluation of analgesics”, Psychopharmacology, 104, 35-44). Mice (NMRI) were given an intraplantar injection of 5% formalin (25 μl) into the posterior left paw. […] The time spent licking was counted for 15 minutes, beginning 15 minutes after injection of formalin. 10 mice were studied per group. The test was performed blind. ESL and CBZ were tested at the doses of 10, 30, 100 and 300 mg/kg p.o., and OXC and R-Lic were tested at the doses of 100 and 300 mg/kg p.o., administered 60 minutes before the test (i.e. 45 minutes before formalin), and compared with a vehicle control group in each experiment.

[3] = Rotarod test (motor impairment); assay type: in vivo, mice; conditions: male, mouse, in vivo, ip; intraperitoneally, 15 min after administration, 15 r.p.m.
Description: (§1) A normal mouse can maintain its equilibrium for long periods in the rotating rod. Mice were examined for motor toxicity in the rotating rod apparatus (Accelerator Rota-Rod [Jones & Roberts] 7650; Ugo Basile). The motor performance of naive mice (male Charles River, weighing 30 to 35 g) was evaluated 15 min after the administration of the compounds to be tested. Animals were placed on the rotating rod at a speed of 15 r.p.m. In a drug-treated mouse the neurological deficit is indicated by the inability of the animal to maintain equilibrium for 1 min in each of three trials. ESL, CBZ, OXC and R-Lic were dissolved in dimethyl sulfoxide (DMSO) (2 ml/kg) and given intraperitoneally (see ROGAWSKI, M. A., […], S., JONES, S. M., RICE, K. C., […], A. & MONN, J. A. (1991). Anticonvulsant activity of the low-affinity uncompetitive N-methyl-D-aspartate antagonist (+−)-5-aminocarbonyl-10,11-dihydro-5H-dibenzo[a,d]cyclohepten-5,10-imine (ADCI): comparison with the structural analogs dizocilpine (MK-801) and carbamazepine. J Pharmacol Exp Ther, 259, 30-37).

[4] = test system: voltage-sensitive sodium channels; assay: [3H]BTX displacement binding to whole brain membranes; conditions: FIG. 3; for Degree of interaction with site 2 in voltage-gated sodium channels, relative to oxcarbazepine: [3H]-BTX displacement
Description: Blockade of voltage-sensitive sodium channels was studied by investigating [3H]batrachotoxinin A […] ([3H]BTX) displacement binding to whole brain membranes. Animals were decapitated and their brains quickly removed. Membrane preparation and binding assays were performed essentially as previously described (Shimidzu et al., 1997). Brains (without cerebellum) were homogenised in 10 vol 0.32 M sucrose, 1 mM EDTA, 1 mg/ml bovine serum albumin (BSA), 5 mM HEPES/TRIS pH 7.4 with a Teflon homogeniser (8 strokes at 400 r.p.m). After a 10 min centrifugation at 1,000 g the supernatants were centrifuged for 20 min at 39,000 g and pellets were homogenised with 20 vol or 40 vol Na+-free buffer, respectively for [3H]-batrachotoxinin A 20-alpha-benzoate ([3H]-BTX) binding assays. Na+-free buffer had the following composition (in mM): 130 choline chloride, 0.8 MgSO4, 5.4 KCl, 5.5 D-glucose, 50 HEPES/TRIS, pH 7.4. The homogenate was centrifuged for 20 min at 39,000 g and the resultant pellets were resuspended in Na+-free buffer. Protein concentration in membrane preparations was determined with BioRad Protein Assay (BioRad) using a standard curve of BSA (50-250 μg/ml). In [3H]-BTX binding assay experiments membrane preparations (200 μg protein) were incubated for 1 h at 37° C. with 10 nM (inhibition experiments) or 1-200 nM (saturation experiments) [3H]-BTX in Na+-free buffer containing 2 μM scorpion toxin, 1 μM tetrodotoxin and 1 mg/ml BSA in 96-well EIA/RIA plates (COSTAR). In inhibition experiments the reaction buffer contained also 3-1000 μM of test drugs. Nonspecific binding was determined in the presence of 300 μM veratridine. Nonspecific binding was 26±2% of total binding at 10 nM [3H-BTX]. After incubation the reaction was terminated by vacuum filtration (Brandel 96 harvester) through glassfiber filtermats (Wallac). […] Filtermats were dried, impregnated with MeltiLex A scintillation mixture (Wallac), inserted into plastic sample bags (Wallac) and radioactivity determined in a Microbeta 1224-510 counter (Wallac).

[5] = humans; subject-dependent; cited from earlier work
[6] = test system: naive mice (male Charles River); assay: Rotarod test (motor impairment); assay type: in vivo; conditions: intraperitoneally, 15 min after administration, 15 r.p.m.
Description: as §1

[7] = test system: voltage-gated sodium channel (VGSC); conditions: cited from earlier work

NC(=O)N1c2ccccc2C=Cc2ccccc21 [CBZ, carbamazepine, reference compound]
Sedation (%) at 300 mg/kg (Mice (NMRI) [1]; NMRI): 100%
Sedation observed (mice sedated / mice given) (Mice (NMRI) [1]; NMRI): 10/10
Formalin paw test licking time (s) at 100 mg/kg (Mice (NMRI) [2]): 5.3 s
Effect on licking in the formalin test at 300 mg/kg (Mice (NMRI) [2]): abolished licking
ED50 (Mice (NMRI) [2]): 38.2 mg/kg
ED50 at 15 min [3]: 29.7 mg/kg

NC(=O)N1c2ccccc2C[C@@H](O)c2ccccc21 [R-Lic, R-licarbazepine]
Ability to displace [3H]-BTX from its binding site in whole brain membranes, compared with oxcarbazepine [4]: reduced ability to displaced
Degree of interaction with site 2 in voltage-gated sodium channels, relative to oxcarbazepine [4]: approximately 2.5 times less
Sedation (%) at 300 mg/kg (Mice (NMRI) [1]): 20%
Proportion in which the enantiomer is formed as metabolite of oxcarbazepine [5]: ~20%
Formalin paw test licking time (s) at 100 mg/kg (Mice (NMRI) [2]): 36.7 s
Rotarod test ED50 values [6]: 97.4 mg/kg

NC(=O)N1c2ccccc2CC(=O)c2ccccc21 [Oxc, oxcarbazepine, reference compound]
Sedation (%) at 300 mg/kg (Mice (NMRI) [1]; NMRI): 90%
Formalin paw test licking time (s) at 100 mg/kg (Mice (NMRI) [2]): 1 s
ED50 at 15 min [3]: 50.2 mg/kg

NC(=O)N1c2ccccc2C[C@H](O)c2ccccc21 [S-Lic, S-licarbazepine]
Degree of interaction with site 2 in voltage-gated sodium channels, relative to oxcarbazepine [4]: approximately 2.5 times less
Proportion in which the enantiomer is formed as metabolite of oxcarbazepine [5]: approximately 80%

CC(=O)O[C@H]1Cc2ccccc2N(C(N)=O)c2ccccc21 [ESL, S-(−)-10-acetoxy-10,11-dihydro-5H-dibenz/b,f/azepine-5-carboxamide]
Sedation (%) at 300 mg/kg (Mice (NMRI) [1]; NMRI): 10%
Sedation observed (mice sedated / mice given) (Mice (NMRI) [1]; NMRI): 1/10
Formalin paw test licking time (s) at 100 mg/kg (Mice (NMRI) [2]): 33.6 s
Effect on licking in the formalin test at 300 mg/kg (Mice (NMRI) [2]): abolished licking
ED50 (Mice (NMRI) [2]): 69.7 mg/kg
Affinity for the resting state of the channel relative to CBZ [7]: about 3 fold lower
ED50 at 15 min [3]: 139 mg/kg
